Legend:
HL-60(TB) = assay: cells; conditions: Homo sapiens; for GI50: HL-60; for CC50: HL-60, read-out: LC50
UACC-257 = assay: NCI growth inhibition and cytotoxicity screen, Melanoma panel; conditions: Homo sapiens; for GI50: UACC-257; for CC50: UACC-257, read-out: LC50
DU-145 = assay: NCI growth inhibition and cytotoxicity screen, Prostate Cancer panel; conditions: Homo sapiens; for GI50: DU-145; for CC50: DU-145, read-out: LC50
BT-549 = assay: NCI growth inhibition and cytotoxicity screen, Breast Cancer panel; conditions: Homo sapiens; for GI50: BT-549; for CC50: BT-549, read-out: LC50
CCRF-CEM = assay: NCI growth inhibition and cytotoxicity screen, Leukemia panel; conditions: Homo sapiens; for CC50: read-out: LC50
OVCAR-3 = assay: cells; conditions: Homo sapiens; for GI50: OVCAR-3; for CC50: OVCAR-3, read-out: LC50
SK-MEL-2 = assay: NCI growth inhibition and cytotoxicity screen, Melanoma panel; conditions: Homo sapiens; for GI50: SK-MEL-2; for CC50: SK-MEL-2, read-out: LC50
A498 = assay: NCI growth inhibition and cytotoxicity screen, Renal Cancer panel; conditions: Homo sapiens; for GI50: A498; for CC50: A498, read-out: LC50
MDA-MB-435 = assay: NCI growth inhibition and cytotoxicity screen, Melanoma panel; conditions: Homo sapiens; for GI50: MDA-MB-435; for CC50: MDA-MB-435, read-out: LC50
OVCAR-5 = assay: NCI growth inhibition and cytotoxicity screen, Ovarian Cancer panel; conditions: Homo sapiens; for GI50: OVCAR-5; for CC50: OVCAR-5, read-out: LC50
NCI-H23 = assay: NCI growth inhibition and cytotoxicity screen, Lung Cancer panel; conditions: Homo sapiens; for GI50: NCI-H23; for CC50: NCI-H23, read-out: LC50
K-562 = assay: NCI growth inhibition and cytotoxicity screen, Leukemia panel; conditions: Homo sapiens; for GI50: K562; for CC50: K562, read-out: LC50
NCI-H226 = assay: NCI growth inhibition and cytotoxicity screen, Lung Cancer panel; conditions: Homo sapiens; for GI50: NCI-H226; for CC50: NCI-H226, read-out: LC50
LOX-IMVI = assay: NCI growth inhibition and cytotoxicity screen, Melanoma panel; conditions: Homo sapiens; for CC50: read-out: LC50
RPMI-8226 = assay: NCI growth inhibition and cytotoxicity screen, Leukemia panel; conditions: Homo sapiens; for GI50: RPMI-8226; for CC50: RPMI-8226, read-out: LC50
SK-OV-3 = assay: NCI growth inhibition and cytotoxicity screen, Ovarian Cancer panel; conditions: Homo sapiens; for GI50: SK-OV-3; for CC50: SK-OV-3, read-out: LC50
UO-31 = assay: NCI growth inhibition and cytotoxicity screen, Renal Cancer panel; conditions: Homo sapiens; for CC50: UO-31, read-out: LC50
HCC-2998 = assay: NCI growth inhibition and cytotoxicity screen, Colon Cancer panel; conditions: Homo sapiens; for GI50: HCC 2998; for CC50: HCC 2998, read-out: LC50
SNB-19 = assay: NCI growth inhibition and cytotoxicity screen, CNS Cancer panel; conditions: Homo sapiens; for GI50: SNB-19; for CC50: SNB-19, read-out: LC50
IGROV1 = assay: NCI growth inhibition and cytotoxicity screen, Ovarian Cancer panel; conditions: Homo sapiens; for GI50: IGROV-1; for CC50: IGROV-1, read-out: LC50
SF-539 = assay: NCI growth inhibition and cytotoxicity screen, CNS Cancer panel; conditions: Homo sapiens; for GI50: SF-539; for CC50: SF-539, read-out: LC50
T-47D = assay: NCI growth inhibition and cytotoxicity screen, Breast Cancer panel; conditions: Homo sapiens, T47D; for CC50: read-out: LC50
SNB-75 = assay: NCI growth inhibition and cytotoxicity screen, CNS Cancer panel; conditions: Homo sapiens; for GI50: SNB-75; for CC50: SNB-75, read-out: LC50
RXF 393 = assay: NCI growth inhibition and cytotoxicity screen, Renal Cancer panel; conditions: Homo sapiens; for GI50: RXF 393; for CC50: RXF 393, read-out: LC50
MDA-MB-231/ATCC = assay: NCI growth inhibition and cytotoxicity screen, Breast Cancer panel; conditions: Homo sapiens; for GI50: MDA-MB-231; for CC50: MDA-MB-231, read-out: LC50
U251 = assay: NCI growth inhibition and cytotoxicity screen, CNS Cancer panel; conditions: Homo sapiens; for GI50: U-251; for CC50: U-251, read-out: LC50
SN12C = assay: NCI growth inhibition and cytotoxicity screen, Renal Cancer panel; conditions: Homo sapiens; for CC50: read-out: LC50
SF-295 = assay: NCI growth inhibition and cytotoxicity screen, CNS Cancer panel; type: cell-based; conditions: Homo sapiens, Table 2, cell line SF-295 (CNS Cancer)
A549/ATCC = assay: NCI growth inhibition and cytotoxicity screen, Lung Cancer panel; conditions: Homo sapiens; for GI50: A549; for CC50: A549, read-out: LC50
HOP-92 = assay: as above; conditions: Homo sapiens; for GI50: HOP-92; for CC50: HOP-92, read-out: LC50
NCI-H522 = assay: as above; type: cell-based; conditions: Homo sapiens, Table 2, cell line NCI-H522 (Lung Cancer)
[1] = read-out: LC50 (the source's name)

COc1cc(OC)cc(/C(C#N)=C/c2cnc3ccccc3c2)c1 [PNR-4-85, (Z)-3-(quinolin-3-yl)-2-(3,5-dimethoxyphenyl)acrylonitrile]
GI50 (HL-60(TB)): 234 nM
CC50 (HL-60(TB)): > 100000 nM
GI50 (UACC-257): 12800 nM
CC50 (UACC-257): > 100000 nM
GI50 (DU-145): 505 nM
CC50 (DU-145): > 100000 nM
GI50 (BT-549): 388 nM
CC50 (BT-549): > 100000 nM
GI50 (CCRF-CEM): 332 nM
CC50 (CCRF-CEM): > 100000 nM
GI50 (OVCAR-3): 279 nM
CC50 (OVCAR-3): > 100000 nM
GI50 (SK-MEL-2): 709 nM
CC50 (SK-MEL-2): > 100000 nM
GI50 (A498): 333 nM
CC50 (A498): > 100000 nM
GI50 (MDA-MB-435): 53 nM
CC50 (MDA-MB-435): > 100000 nM
GI50 (OVCAR-5): 587 nM
CC50 (OVCAR-5): > 100000 nM
GI50 (NCI-H23): 747 nM
CC50 (NCI-H23): > 100000 nM
GI50 (K-562): 243 nM
CC50 (K-562): > 100000 nM
GI50 (NCI-H226): 62200 nM
CC50 (NCI-H226): > 100000 nM
GI50 (LOX-IMVI): 672 nM
CC50 (LOX-IMVI): > 100000 nM
GI50 (RPMI-8226): 332 nM
CC50 (RPMI-8226): > 100000 nM
GI50 (SK-OV-3): 576 nM
CC50 (SK-OV-3): > 100000 nM
CC50 (UO-31): > 100000 nM
GI50 (HCC-2998): 1450 nM
CC50 (HCC-2998): > 100000 nM
GI50 (SNB-19): 614 nM
CC50 (SNB-19): > 100000 nM
GI50 (IGROV1): 3500 nM
CC50 (IGROV1): > 100000 nM
GI50 (SF-539): 289 nM
CC50 (SF-539): > 100000 nM
GI50 (T-47D): 628 nM
CC50 (T-47D): > 100000 nM
GI50 (SNB-75): 224 nM
CC50 (SNB-75): > 100000 nM
GI50 (RXF 393): 297 nM
CC50 (RXF 393): > 100000 nM
GI50 (MDA-MB-231/ATCC): 1150 nM
CC50 (MDA-MB-231/ATCC): > 100000 nM
GI50 (U251): 374 nM
CC50 (U251): > 100000 nM
GI50 (SN12C): 661 nM
CC50 (SN12C): > 100000 nM
GI50 (SF-295): 243 nM
CC50 (SF-295; [1]): > 100000 nM
GI50 (A549/ATCC): 556 nM
CC50 (A549/ATCC): > 100000 nM
GI50 (HOP-92): 3090 nM
CC50 (HOP-92): > 100000 nM
GI50 (NCI-H522): 69 nM
CC50 (NCI-H522; [1]): > 100000 nM

COc1cc(/C(C#N)=C\c2cc3ccccc3s2)cc(OC)c1OC [Formula (I)(a)]
GI50 (HL-60(TB)): < 10 nM
CC50 (HL-60(TB)): > 100000 nM
GI50 (UACC-257): < 10 nM
CC50 (UACC-257): > 100000 nM
GI50 (DU-145): < 10 nM
CC50 (DU-145): > 100000 nM
GI50 (BT-549): < 10 nM
CC50 (BT-549): > 100000 nM
GI50 (CCRF-CEM): < 10 nM
CC50 (CCRF-CEM): > 100000 nM
GI50 (OVCAR-3): < 10 nM
CC50 (OVCAR-3): > 100000 nM
GI50 (SK-MEL-2): < 10 nM
CC50 (SK-MEL-2): > 100000 nM
GI50 (A498): < 10 nM
CC50 (A498): > 100000 nM
GI50 (MDA-MB-435): < 10 nM
CC50 (MDA-MB-435): > 100000 nM
GI50 (OVCAR-5): < 10 nM
CC50 (OVCAR-5): > 100000 nM
GI50 (NCI-H23): < 10 nM
CC50 (NCI-H23): > 100000 nM
GI50 (K-562): < 10 nM
CC50 (K-562): > 100000 nM
GI50 (NCI-H226): 17.9 nM
CC50 (NCI-H226): > 100000 nM
GI50 (LOX-IMVI): < 10 nM
CC50 (LOX-IMVI): > 100000 nM
GI50 (RPMI-8226): < 10 nM
CC50 (RPMI-8226): > 100000 nM
GI50 (SK-OV-3): < 10 nM
CC50 (SK-OV-3): > 100000 nM
GI50 (UO-31; UO-31): < 10 nM
CC50 (UO-31): > 100000 nM
GI50 (HCC-2998): 19.2 nM
CC50 (HCC-2998): > 100000 nM
GI50 (SNB-19): 39.1 nM
CC50 (SNB-19): > 100000 nM
GI50 (IGROV1): < 10 nM
CC50 (IGROV1): > 100000 nM
GI50 (SF-539): < 10 nM
CC50 (SF-539): > 100000 nM
GI50 (T-47D): < 10 nM
CC50 (T-47D): > 100000 nM
GI50 (SNB-75): < 10 nM
CC50 (SNB-75): > 100000 nM
GI50 (RXF 393): < 10 nM
CC50 (RXF 393): > 100000 nM
GI50 (MDA-MB-231/ATCC): < 10 nM
CC50 (MDA-MB-231/ATCC): > 100000 nM
GI50 (U251): < 10 nM
CC50 (U251): > 100000 nM
GI50 (SN12C): < 10 nM
CC50 (SN12C): > 100000 nM
GI50 (A549/ATCC): < 10 nM
CC50 (A549/ATCC): > 100000 nM
GI50 (HOP-92): < 10 nM
CC50 (HOP-92): > 100000 nM

From US9884842B2, “Combretastatin analogs” (The Board of Trustees of the University of Arkansas, priority 2013, dated 2018)
